We go through 14 compounds from patent US8673906B2, “Chromenone derivatives” (AstraZeneca AB, priority 2010, dated 2014).

Read-outs that look alike come from different tables or passages of the source.

In experiment [1] the test system is phospho AKT (ser473) in MAD-MB-468 cells. The experiment can be described thus: Detection of phospho AKT (ser473) in MAD-MB-468 cells. It is filed as cell-based, human. The following applies: Test (b). Here is the method:
(b) Protocol for Detection of Phospho AKT (Ser473) in MAD-MB-468 Cells
MDA-MB-468 cells (human breast adenocarcinoma ATCC HTB 132) are seeded into Greiner 384 well black flat-bottomed plates by automated cell culture robot (Selec T). Cells can also be maintained manually and seeded into plates using multidrop or Wellmate. Cells seeded at 1500 cell/well in 40 μl of DMEN containing 10% FCS and 1% glutamine. Cell plates are incubated for 18 hours in a 37° C. incubator.
Compounds are dosed onto cells using an Echo acoustic dispenser, which dispenses nl quantities of compound or DMSO. Compounds are dosed in a 12 point concentration range from 30 μM top dose, 28 compounds are dosed on one plate. There are 17 DMSO only positive control wells per plate, and 16 negative control well which have been dosed with a concentration of reference compound that will knockout the pAKT signal.
Plates are incubated at 37° C. for 2 hours, cells are the fixed by the addition of 10 μl of a 3.7% Formaldehyde solution in a fume cupboard using a Wellmate.
After 30 minutes to allow for fixation, the fixative and media are removed and the plates washed with Proclin PBS/A using Tecan PW384 plate washer in a fume cupboard. Wells are blocked and permeabilised with the addition of 40 μl of PBS containing 0.5% Tween20 and 1% marvel using a Wellmate and incubated for 60 minutes at room temperature.
Permeabilisation and blocking buffer removed using Tecan PW384 plate washer, then 20 μl primary antibody solution added using a Wellmate. The primary antibody solution is a 1:500 dilution of Rabbit anti-phospho AKT Ser 473 (Cell signalling technologies catalogue number #3787) in PBS/T containing 1% marvel (dried milk powder) and incubated overnight at 4° C.
Plates are washed using a Tecan PW384 plate washer three times with Phosphate Buffered Saline+0.05% (v/v) Polysorbate20 and Proclin300 (Supelco). 20 μl of secondary antibody solution is then added to each well using a Wellmate and incubated for 1 hour at Room Temp. The secondary antibody solution is a 1:1000 dilution of Alexa Fluor 488 anti-Rabbit (Molecular Probes cat no A11008) diluted in Phosphate Buffered Saline+0.05% (v/v) Polysorbate20 containing 1% marvel. Plates are washed three times as before then 20 μl PBS added to each well and plates sealed with black plate sealer.
The plates are read on an Acumen reader as soon as possible. Using this system IC50 values can be generated and quality of plates determined by control wells. Reference compounds are run each time to monitor assay performance.

In experiment [2] the target is PI3Kβ (Homo sapiens (Human), UniProt P42338). Description: In vitro enzyme inhibition assay (Kinase Glo based enzyme activity assay). It is filed as biochemical. The note with it: Test (a). The procedure, abridged: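 ATP depletion by recombinant human PI3Kβ measured with Kinase-Glo luminescence after an 80 min reaction (final 80 μM ATP, 80 μM PIP2, 1% DMSO) in Tris pH 7.4 buffer with CHAPS, DTT and MgCl2, following 20 min enzyme–compound preincubation. Twelve concentrations fitted by non-linear regression for IC50.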
In general terms: In Kinase-Glo more light means more ATP remaining.

Where [3] appears, read: Homo sapiens, approximate value, read-out: IC50 versus cellular phospho AKT (ser473) in MAD-MB-468 cells.
Where [4] appears, read: Homo sapiens, mean IC50 value calculated from a larger number of replicates, read-out: IC50 versus cellular phospho AKT (ser473) in MAD-MB-468 cells (value in brackets).
Where [5] appears, read: approximate value, read-out: IC50 versus PI3Kβ.
Where [6] appears, read: human recombinant enzyme, read-out: PI3Kβ inhibition, IC50.
The mark [7] stands for this setting: approximate value, read-out: IC50 versus cellular phospho AKT (ser473) in MAD-MB-468 cells.

PI3Kβ, sequence (P42338 whole entry): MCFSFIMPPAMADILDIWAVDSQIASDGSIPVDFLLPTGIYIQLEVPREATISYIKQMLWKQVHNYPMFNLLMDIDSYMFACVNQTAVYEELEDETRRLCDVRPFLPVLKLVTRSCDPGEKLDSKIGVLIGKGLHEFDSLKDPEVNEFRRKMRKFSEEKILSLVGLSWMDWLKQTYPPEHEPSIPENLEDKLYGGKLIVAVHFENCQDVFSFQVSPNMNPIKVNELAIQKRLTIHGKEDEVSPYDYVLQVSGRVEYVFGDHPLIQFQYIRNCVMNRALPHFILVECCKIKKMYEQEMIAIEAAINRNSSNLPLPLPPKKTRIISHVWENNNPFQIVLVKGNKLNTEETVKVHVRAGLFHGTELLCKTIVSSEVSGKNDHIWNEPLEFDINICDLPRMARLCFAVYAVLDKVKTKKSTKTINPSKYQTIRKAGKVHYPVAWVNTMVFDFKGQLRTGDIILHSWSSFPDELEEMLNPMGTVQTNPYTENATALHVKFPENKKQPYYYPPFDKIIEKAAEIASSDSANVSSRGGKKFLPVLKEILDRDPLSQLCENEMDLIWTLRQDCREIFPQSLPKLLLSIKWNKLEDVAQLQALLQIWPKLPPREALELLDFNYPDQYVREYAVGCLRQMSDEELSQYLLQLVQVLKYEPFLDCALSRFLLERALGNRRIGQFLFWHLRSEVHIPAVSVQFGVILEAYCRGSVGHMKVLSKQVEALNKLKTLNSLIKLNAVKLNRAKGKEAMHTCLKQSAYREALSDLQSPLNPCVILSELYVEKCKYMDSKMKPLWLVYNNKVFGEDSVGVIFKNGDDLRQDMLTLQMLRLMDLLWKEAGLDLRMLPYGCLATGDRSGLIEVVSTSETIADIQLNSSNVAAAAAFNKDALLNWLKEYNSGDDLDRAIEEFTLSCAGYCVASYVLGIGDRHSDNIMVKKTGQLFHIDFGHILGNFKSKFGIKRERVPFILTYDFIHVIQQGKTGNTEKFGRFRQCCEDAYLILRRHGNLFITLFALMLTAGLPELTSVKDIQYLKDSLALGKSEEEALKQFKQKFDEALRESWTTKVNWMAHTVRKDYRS
PI3Kβ, sequence (P27986 whole entry partner): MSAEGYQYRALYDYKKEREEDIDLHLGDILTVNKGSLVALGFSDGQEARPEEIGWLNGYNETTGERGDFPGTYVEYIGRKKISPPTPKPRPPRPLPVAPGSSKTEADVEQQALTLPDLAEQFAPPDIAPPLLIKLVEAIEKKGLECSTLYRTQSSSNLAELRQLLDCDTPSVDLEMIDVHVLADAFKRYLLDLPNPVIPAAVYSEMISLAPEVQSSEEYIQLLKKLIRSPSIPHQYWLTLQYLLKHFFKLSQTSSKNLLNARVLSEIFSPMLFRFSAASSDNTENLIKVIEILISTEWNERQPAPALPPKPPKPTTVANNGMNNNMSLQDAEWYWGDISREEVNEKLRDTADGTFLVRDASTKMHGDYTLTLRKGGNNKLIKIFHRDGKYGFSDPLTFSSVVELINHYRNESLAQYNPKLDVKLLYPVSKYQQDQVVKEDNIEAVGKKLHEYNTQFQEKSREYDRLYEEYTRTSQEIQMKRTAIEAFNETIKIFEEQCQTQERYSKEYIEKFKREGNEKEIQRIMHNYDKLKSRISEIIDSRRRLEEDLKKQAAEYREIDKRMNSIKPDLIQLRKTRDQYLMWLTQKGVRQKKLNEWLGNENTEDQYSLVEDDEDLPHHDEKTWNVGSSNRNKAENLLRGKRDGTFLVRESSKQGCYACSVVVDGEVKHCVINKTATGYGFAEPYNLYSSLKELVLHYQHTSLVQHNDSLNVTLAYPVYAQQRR

Consider `CC(Nc1ccc(F)c(F)c1)c1cc(C(=O)N(C)C)cc2c(=O)cc(N3CCOCC3)oc12` (racemic) [Example 3.03, 8-(1-(3,4-difluorophenylamino)ethyl)-N,N-dimethyl-2-morpholino-4-oxo-4H-chromene-6-carboxamide], for which the IC50 (in general, the midpoint of a concentration-inhibition curve) in experiment [1] (setting [3]) is roughly 35 nM; in experiment [1] (setting [4]) it was roughly 37 nM; in experiment [2] (setting [5]) it was roughly 9 nM; in experiment [2] (setting [6]), 9 nM.

For the compound `CC(Nc1cccc(Cl)c1F)c1cc(C(=O)N(C)C)cc2c(=O)cc(N3CCOCC3)oc12` (racemic) [Example 3.04, 8-(1-(3-chloro-2-fluorophenylamino)ethyl)-N,N-dimethyl-2-morpholino-4-oxo-4H-chromene-6-carboxamide], the IC50 is roughly 12 nM in experiment [1] (setting [3]), roughly 11 nM in experiment [2] (setting [5]) and 11 nM in experiment [2] (setting [6]).

`CC(Nc1cc(F)cc(F)c1)c1cc(C(=O)N(C)C)cc2c(=O)cc(N3CCOCC3)oc12` (racemic) [Example 3.06, 8-(1-(3,5-difluorophenylamino)ethyl)-N,N-dimethyl-2-morpholino-4-oxo-4H-chromene-6-carboxamide]: the IC50 in experiment [1] (setting [3]) was roughly 9 nM.

`CC(Nc1cc(F)cc(F)c1)c1cc(C(=O)N(C)C)cc2c(=O)cc(N3CCOCC3)oc12` (single isomer, unassigned) [Example 3.06a, 8-(1-(3,5-difluorophenylamino)ethyl)-N,N-dimethyl-2-morpholino-4-oxo-4H-chromene-6-carboxamide]: in experiment [1] (setting [7]), the IC50 was roughly 13500 nM.

Consider `CC(Nc1cc(F)cc(F)c1F)c1cc(C(=O)N(C)C)cc2c(=O)cc(N3CCOCC3)oc12` (single isomer, unassigned) [Example 3.13a, N,N-dimethyl-2-morpholino-4-oxo-8-(1-(2,3,5-trifluorophenylamino)ethyl)-4H-chromene-6-carboxamide], for which the IC50 in experiment [1] (setting [3]) is roughly 4300 nM; in experiment [2] (setting [5]) it was roughly 4500 nM; in experiment [2] (setting [6]), 4540 nM.

On to `CC(c1cc(C(=O)N(C)C)cc2c(=O)cc(N3CCOCC3)oc12)N(C)c1cc(F)cc(F)c1` (single isomer, unassigned) [Example 5.0a, 8-(1-((3,5-difluorophenyl)(methyl)amino)ethyl)-N,N-dimethyl-2-morpholino-4-oxo-4H-chromene-6-carboxamide], for which the IC50 in experiment [1] (setting [3]) is roughly 15 nM.

For the compound `CC(Nc1cc(F)cc(F)c1)c1cc(C(=O)N(C)C)cc2c(=O)cc(N3CCOCC3)oc12` (single isomer, unassigned; (-)) [Example 3.06b, (−)-8-(1-(3,5-difluorophenylamino)ethyl)-N,N-dimethyl-2-morpholino-4-oxo-4H-chromene-6-carboxamide], the IC50 was roughly 3 nM in experiment [1] (setting [4]) and roughly 5 nM in experiment [1] (setting [7]).

Turning to `CC(Nc1ccc(F)cc1)c1cc(C(=O)NCCN(C)C)cc2c(=O)cc(N3CCOCC3)oc12` (stereo not drawn) [Example 1.00, N-(2-(dimethylamino)ethyl)-8-(1-(4-fluorophenylamino)ethyl)-2-morpholino-4-oxo-4H-chromene-6-carboxamide], the IC50 in experiment [1] (setting [3]) was roughly 9 nM; in experiment [2] (setting [5]), roughly 2 nM; in experiment [2] (setting [6]) it was 2 nM.

On to `CC(Nc1cccc(Cl)c1F)c1cc(C(=O)N(C)CCO)cc2c(=O)cc(N3CCOCC3)oc12` (stereo not drawn) [Example 2.05, 8-(1-(3-chloro-2-fluorophenylamino)ethyl)-N-(2-hydroxyethyl)-N-methyl-2-morpholino-4-oxo-4H-chromene-6-carboxamide], for which the IC50 was roughly 17 nM in experiment [1] (setting [3]), roughly 5 nM in experiment [2] (setting [5]) and 5 nM in experiment [2] (setting [6]).

With `CC(c1cc(C(=O)N(C)C)cc2c(=O)cc(N3CCOCC3)oc12)N(C)c1ccc(F)cc1` (stereo not drawn) [Example 3.07, 8-(1-((4-fluorophenyl)(methyl)amino)ethyl)-N,N-dimethyl-2-morpholino-4-oxo-4H-chromene-6-carboxamide], the IC50 in experiment [1] (setting [3]) is roughly 580 nM; in experiment [2] (setting [5]), roughly 29 nM.

Regarding `CC(Nc1cc(F)c(F)c(F)c1)c1cc(C(=O)N(C)C)cc2c(=O)cc(N3CCOCC3)oc12` (stereo not drawn) [Example 3.11, N,N-dimethyl-2-morpholino-4-oxo-8-(1-(3,4,5-trifluorophenylamino)ethyl)-4H-chromene-6-carboxamide], the IC50 in experiment [1] (setting [3]) is roughly 27 nM.

On to `CC(Nc1cc(F)cc(F)c1)c1cc(C(=O)N2CCCC2)cc2c(=O)cc(N3CCOCC3)oc12` (stereo not drawn) [Example 4.02, 8-(1-(3,5-difluorophenylamino)ethyl)-2-morpholino-6-(pyrrolidine-1-carbonyl)-4H-chromen-4-one], for which the IC50 in experiment [1] (setting [3]) was roughly 1 nM; in experiment [1] (setting [4]), roughly 2 nM; in experiment [2] (setting [5]), roughly 4 nM; in experiment [2] (setting [6]) it was 4 nM.

As for `CC(c1cc(C(=O)N2CCC(O)CC2)cc2c(=O)cc(N3CCO[C@H](C)C3)oc12)N(C)c1cc(F)cc(F)c1` (stereo partly drawn) [Example 10.03, 8-(1-((3,5-difluorophenyl)(methyl)amino)ethyl)-6-(4-hydroxypiperidine-1-carbonyl)-2-((R)-2-methylmorpholino)-4H-chromen-4-one], the IC50 in experiment [2] (setting [6]) was 9 nM.

For `CC(Nc1cc(F)cc(F)c1)c1cc(C(=O)N(C)C)cc2c(=O)cc(N3CCOC[C@@H]3C)oc12` (stereo partly drawn) [Example 11.00, 8-(1-(3,5-difluorophenylamino)ethyl)-N,N-dimethyl-2-((S)-3-methylmorpholino)-4-oxo-4H-chromene-6-carboxamide], the IC50 in experiment [2] (setting [6]) was found to be 21 nM.
